In patent US9321757B2, “Heterocyclic compound” (Takeda Pharmaceutical Company Limited, priority 2013, dated 2016):

Experiments:
IRAK-4 = biological target: T1, IRAK-4 (Homo sapiens, UniProt Q9NWZ3); assay: IRAK-4 Enzyme Inhibition Test (LANCE method); assay type: biochemical; details: compound concentration 1 μM; well without enzyme = 100% inhibition; read-out: IRAK4 enzyme inhibitory rate (%) at 1 μM
T1 construct: purchased Carna Biosciences, Inc
T1 sequence (Q9NWZ3 1-460): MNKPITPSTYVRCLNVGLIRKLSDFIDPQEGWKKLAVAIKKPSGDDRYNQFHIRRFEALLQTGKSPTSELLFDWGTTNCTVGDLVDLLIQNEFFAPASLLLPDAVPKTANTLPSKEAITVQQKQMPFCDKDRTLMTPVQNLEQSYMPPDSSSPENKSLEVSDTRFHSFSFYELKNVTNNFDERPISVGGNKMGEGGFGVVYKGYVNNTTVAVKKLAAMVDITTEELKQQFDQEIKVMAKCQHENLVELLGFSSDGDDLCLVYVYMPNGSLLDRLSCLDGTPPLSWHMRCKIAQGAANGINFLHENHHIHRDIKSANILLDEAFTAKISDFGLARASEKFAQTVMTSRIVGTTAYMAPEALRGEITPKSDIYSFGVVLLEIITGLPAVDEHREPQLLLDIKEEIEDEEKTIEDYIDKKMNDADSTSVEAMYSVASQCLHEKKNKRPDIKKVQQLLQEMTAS
Description: IRAK-4 enzyme inhibitory activities of test compounds were measured by LANCE method (PerkinElmer). First, a test compound diluted with assay buffer (50 mM HEPES (pH7.5), 10 mM MgCl2, 1 mM EGTA, 2 mM DTT, 0.01% Tween 20, 0.01% BSA) was added to 384-well plate at 2 μL each. Then, IRAK-4 (Carna Biosciences, Inc.) and a fluorescence-labeled peptide substrate (ULight-ACC peptide, PerkinElmer) solution diluted with assay buffer at 240 ng/mL and 37.5 nM, respectively were added at 2 μL each. Then, enzyme reaction was started by adding 2 μL each of ATP solution prepared with assay buffer at 1.5 mM. After the reaction at room temperature for 1 hr, Detection Buffer (PerkinElmer) prepared to be 20 mM EDTA, 1 nM europium-labeled anti-phospho ACC antibody (PerkinElmer) was added at 6 μL each. After standing at room temperature for 1 hr, fluorescence intensity (excitation wavelength 340 nm, fluorescence wavelength 665 nm, delay time 100 microseconds) was measured by a plate reader, Envision (PerkinElmer). The inhibitory activity of each compound was calculated as relative value where fluorescence intensity of a well without enzyme is considered as 100% inhibition.

[1] = tested on: tumor necrosis factor (TNFα) production in the serum; assay: R848 Tolerance Test in Rat; assay type: in vivo; details: Lewis rat serum 1 hr after R848 i.p., mean ± S.E.
Description: 6-Week-old male LEW/CrlCrlj (Lewis) rats (Japane Charles River Laboratories) were used as 8 rats/group. R848 (Enzo Life Sciences) was dissolved in dimethyl sulfoxide (500 mM), and the concentration of solution was adjusted to 300 μM with saline, and 1.0 mL thereof was intraperitoneally administered in the rat. The compound was orally administered 1 hr before R848 administration. 0.5% Methyl cellulose (5 mL/kg) was orally administered as a control. The blood was collected from the abdominal aorta 1 hr after R848 administration. The blood was left overnight at 4° C., and the serum was collected by centrifugation. The amount of the tumor necrosis factor (TNFα) production in the serum was measured by […] TNF-alpha Quantikine ELISA Kit (R&D Systems). Shirley-Williams test was used for a dose-dependent manner, and p≦0.05 was evaluated as a significance level.

NC1-induced nephritis = assay type: in vivo, rat
Description: 8-Week-old female WKY rats (Japan Charles River Laboratories) were used as 7 rats/group. Bovine NC1 (The non-collagenous domain of α3 chain of type IV collagen, Chondrex, inc) was dissolved in phosphate buffer to adjust the concentration to 0.3 mg/mL. The equal amount of complete Freund's adjuvant (H37 Ra, Diffco) was added thereto to give an emulsion. The emulsion (0.2 mL) was inoculated intracutaneously into the rat tail head (the 0 day). The compound was orally administered for 5 weeks (the 0 to 35th day, twice a day). 0.5% Methyl cellulose (5 mL/kg) was orally administered as a control. The urine was collected for 4 hr on the −1st day (Pre value) and the 35th day. The collected urine was centrifuged at 400 G, for 5 min at 4° C., the supernatant was kept at −80° C., and the amounts of creatinine and protein were measured. The body weight was measured on the 0th day and the 35th day. A comparison between the groups was analyzed by Dunnett test, and p≦0.05 was evaluated as a significance level.

Row | SMILES | inhibition at 1 µM (IRAK-4) [%] | TNFα production amount ([1]; 0.3 mg/kg orally 1 hr before R848, Control 1090 ± 137) [pg/mL] | TNFα production amount ([1]; 1 mg/kg orally 1 hr before R848, Control 1090 ± 137) [pg/mL] | TNFα production amount ([1]; 3 mg/kg orally 1 hr before R848, p ≦ 0.05 vs. Control 1090 ± 137) [pg/mL] | TNFα production amount ([1]; 10 mg/kg orally 1 hr before R848, p ≦ 0.05 vs. Control 1090 ± 137) [pg/mL] | Proteinuria (mg/mg Cre 4 hr), Pre (−1st day) (NC1-induced nephritis; WKY rat, 3 mg/kg group, Pre value (−1st day, before immunisation and dosing), mean ± S.E.) [mg/mg Cre 4 hr] | Proteinuria (mg/mg Cre 4 hr), 35th day (NC1-induced nephritis; WKY rat, 3 mg/kg orally twice a day, 0 to 35th day, mean ± S.E., p ≦ 0.05 vs. Control 31.7 ± 4.26) [mg/mg Cre 4 hr] | Body weight difference from the 0th day on the 35th day (g) (NC1-induced nephritis; rat, in vivo, po, 3 mg/kg) | TNFα production amount ([1]; 0.27 mg/kg orally 1 hr before R848, Control 945 ± 106) [pg/mL] | TNFα production amount ([1]; 0.91 mg/kg orally 1 hr before R848, Control 945 ± 106) [pg/mL] | TNFα production amount ([1]; 2.73 mg/kg orally 1 hr before R848, Control 945 ± 106) [pg/mL] | TNFα production amount ([1]; 9.09 mg/kg orally 1 hr before R848, p ≦ 0.05 vs. Control 945 ± 106) [pg/mL]
1 | Cn1cc(NC(=O)c2coc(-c3ccnc(NCC(F)(F)F)c3)n2)c(N2CCN(CCO)C2=O)n1 [Example 57, N-(3-(3-(2-hydroxyethyl)-2-oxoimidazolidin-1-yl)-1-methyl-1H-pyrazol-4-yl)-2-(2-((2,2,2-trifluoroethyl)amino)pyridin-4-yl)-1,3-oxazole-4-carboxamide] | 100 | 1349 ± 181 | 736 ± 76.2 | 306 ± 45.9 | 236 ± 26.8 | 0.32 ± 0.05 | 18.1 ± 2.43 | +63.7 ± 2.8 g | – | – | – | –
2 | Cn1cc(NC(=O)c2coc(-c3ccnc(NCC(F)(F)F)c3)n2)c(N2CCNC2=O)n1 [Example 58, N-(1-methyl-3-(2-oxoimidazolidin-1-yl)-1H-pyrazol-4-yl)-2-(2-((2,2,2-trifluoroethyl)amino)pyridin-4-yl)-1,3-oxazole-4-carboxamide] | 99 | – | – | – | – | – | – | – | 1070 ± 160 | 804 ± 116 | 628 ± 31.1 | 326 ± 41.1
